Laboratory results taken from patent US10155742B2, “Halofuginol derivatives and their use in cosmetic and pharmaceutical compositions” (President and Fellows of Harvard College, priority 2012, dated 2018).

Legend:
[1] = tested on: mouse embryo fibroblasts (MEFs); experiment: HF and proline effects on mouse embryo fibroblasts (gene expression, ECM protein production, protein synthesis); assay type: cell-based
Method: A) Primary murine CD4^+ CD25^− T cells were activated through the T-cell receptor in Th17 polarizing conditions (Sundrud et al. Science 324:1334-8 (2009)) in the presence of either 10 nM MAZ1310 or HF and the following amino acid supplements: 10× concentration of essential (EAA) or non-essential (NEAA) amino acids mixtures (Biowhittaker or Invitrogen, respectively), or 10× concentrations (1 mM) of indicated individual amino acids. Data are presented as mean percentage of Th17 (IL-17+ IFNg−) cells +/−SD from triplicate wells. B) Th17 differentiation was assayed as described above, in the absence or presence of HF or borrelidin, with or without 1 mM threonine or proline supplementation. C) MEFs were treated with or without HF (50 nM) and/or proline (2 mM) for 4 hours (CHOP, S100A4) or 24 hours (ColIA1, Col1A2). mRNA expression was normalized to expression of TBP and is shown relative to untreated control. […] Confidence intervals (p-value) for the effect of HF alone versus HF+Pro were determined using a two-tailed Student's t test. Data are representative of two separate experiments. D) Cells were pre-incubated for 24 hours with HF and proline as indicated, and secretion of Type I procollagen was measured after 24 hours in conditioned medium of cells plated by Western blot and quantitated using Image J software (top panel). Total protein synthesis was measured as TCA-precipitable ^35S in a scintillation counter (bottom panel).
MEFs were incubated for 4 hours in HF with or without 2 mM proline, to measure new collagen production in conditioned medium. Cells were washed into fresh DMEM/0.2% FBS, and proline or HF re-added, and either conditioned medium (for Type I procollagen) or total cell lysate (for fibronectin, c-actin) and were harvested after 24 hours. Triplicate plates of cells for each condition were treated, harvested, and blotted in parallel. Protein levels were assayed by Western blot, detected using chemiluminescence, and film exposure was quantitated using Image J software.
For assays of HF and proline effects on fibroblasts, mouse embryo fibroblasts were grown in 10% FCS/DMEM. For studies of TGFβ signaling, ^35S methionine incorporation into total protein, and collagen production, cells were shifted into 0.2% FCS/DMEM 24 hours before the addition of HF or proline. For examination of protein expression and phosphorylation, cells were lysed in RIPA with 5 mM EDTA, 1× PhosStop (Roche), and 1× Complete protease inhibitor mix (Roche), and assayed by Western blot as described above. For analysis of gene expression, cells were lysed in Trizol (Invitrogen) and gene expression quantitated by quantitative RT-PCR using the Roche UPR Light-Cycler system.

[2] = tested on: Th17 cell differentiation (primary murine CD4+ CD25- T cells); settings: from PCT/US08/09774; read-out: 50% inhibition of Th17 cell development; cited from earlier work

O=C(C[C@H]1NCCC[C@@H]1O)Cn1cnc2cc(Br)c(Cl)cc2c1=O (racemic) [HF, 7-bromo-6-chloro-3-[3-(3-hydroxy-2-piperidinyl)-2-oxopropyl]-4(3H)-quinazolinone]
production of secreted Type I procollagen and fibronectin ([1]; 24 hours treatment, FIG. 6D): dramatically inhibited | mRNA levels of Col1A1, Col1A2, and S100A4 ([1]; MEFs, HF 50 nM, 4 or 24 hours, FIG. 6C): inhibits | expression of mRNA encoding CHOP ([1]; MEFs, HF 50 nM, 4 hours, FIG. 6C): stimulated | 35S-methionine incorporation into total protein ([1]; same doses as ECM protein inhibition, FIG. 6D): did not significantly change | IC50 [2]: ~3 nM
